From patent publication US10220025B1, “Self-emulsifying formulation of CARP-1 functional mimetics” (Florida A&M University, priority 2016, dated 2019)
Like-named read-outs stand apart in the source and are kept apart here.

What was measured:
[1] = tested on: drug-resistant TNBC cells; assay: MTT viability assay, drug-resistant TNBC sublines (not singled out); assay type: cell-based; conditions: read-out: GI50 dose, doxorubicin-resistant TNBC cells
Method: (§1) Human TNBC MDA-MB-468 and MDA-MB-231, and mouse TNBC 4T1 cells were cultured in the chronic presence (>10 months) of Doxorubicin. The parental, wild-type cells were initially treated with 200 nM Doxorubicin for 2-3 weeks, followed by escalation to 400 nM, 1 μM, and 2 μM doses over a period of 3-4 weeks for each dose till resistance developed and the cells became well adapted to growth in […] of Doxorubicin for their routine culture. In the case of Cisplatin however, the human TNBC MDA-MB-468 and MDA-MB-231 were initially cultured in continuous presence of 1 μM Cisplatin for 3-4 weeks, and the dose was escalated to 1.5 μM and 3 μM over periods of 3-4 weeks for each dose till resistance developed and cells became adapted to routine culture in 3 μM dose. Subsequent, routine maintenance of the resistant cells in the presence of the respective drug was continued and multiple, resistant sublines for each of the TNBC cells were isolated and characterized for their growth inhibitory (GI)50 dose of respective therapeutic by the MTT-based viability assays as below.

[2] = tested on: MDA-MB-231 TNBC cells, wild type; assay: MTT viability assay, parental MDA-MB-231; assay type: cell-based, human; conditions: Homo sapiens, MDA-MB-231; 72 h; Wild type
Method: (§2) In vitro inhibition of cell growth was assessed by MTT (3-[4, 5-dimethyltiazol-2-yl]-2.5-diphenyl tetrazolium bromide) reagent. Cells (5×10^3) were seeded in a 96-well culture plate and subsequently treated with respective agents at different concentrations as mentioned. Control cells were treated with 0.1% DMSO in culture medium. After treatment, the cells were incubated with 1 mg/ml of MTT reagent at 37° C. for 2-4 hours and then MTT was removed and 50 μL of DMSO was added, followed by colorimetric analysis using a multi-label plate reader at 560 nm (Victor3; PerkinElmer, Wellesley, Mass., USA).

[3] = tested on: MDA-MB-468 TNBC cells, wild type; assay: MTT viability assay, parental MDA-MB-468; assay type: cell-based, human; conditions: Homo sapiens, MDA-MB-468; 72 h; Wild type
Method: as §2

[4] = tested on: Adriamycin-resistant (ADR-R) MDA-MB-231 sublines; assay: MTT viability assay, ADR-resistant MDA-MB-231 sublines; assay type: cell-based; conditions: Homo sapiens, 72 h, ADR-R Clones 1-6
Method: as §1

TNBC cells = assay: MTT viability assay, parental TNBC cells (lines not singled out); assay type: cell-based
Method: as §2

[5] = tested on: Adriamycin-resistant (ADR-R) MDA-MB-468 sublines; assay: MTT viability assay, ADR-resistant MDA-MB-468 sublines; assay type: cell-based, human
Method: as §1

[6] = tested on: Adriamycin-resistant (ADR-R) 4T1 sublines; assay: MTT viability assay, ADR-resistant 4T1 sublines; assay type: cell-based; conditions: Mus musculus; 72 h; ADR-R Clones 1-6
Method: Human TNBC MDA-MB-468 and MDA-MB-231, and mouse TNBC 4T1 cells were cultured in the chronic presence (>10 months) of Doxorubicin. The parental, wild-type cells were initially treated with 200 nM Doxorubicin for 2-3 weeks, followed by escalation to 400 nM, 1 μM, and 2 μM doses over a period of 3-4 weeks for each dose till resistance developed and the cells became well adapted to growth in 1 μM dose of Doxorubicin for their routine culture. […] Subsequent, routine maintenance of the resistant cells in the presence of the respective drug was continued and multiple, resistant sublines for each of the TNBC cells were isolated and characterized for their growth inhibitory (GI)50 dose of respective therapeutic by the MTT-based viability assays as below.
as §2

[7] = tested on: CSC-enriched populations from xenografts of parental and ADR-resistant MDA-MB-231 TNBC cells; assay: MTT viability of tumor-derived CSC-enriched cells; assay type: cell-based, human; conditions: dose-dependent; FIG. 15C
Method: The CSC-enriched cells were then treated with ADR, CFM-4.16, or a combination of both for noted dose and time. The cell viabilities were determined by MTT-based assay as in FIGS. 3A-3C, and plotted relative to the MTT values for the respective untreated controls. The histogram columns in panels B and C represent means of three and four independent experiments, respectively; bars, S.E. α, αα, β, ββ, ^*,**,#,##p=<0.03 relative to respective cells treated with ADR+CFM-4.16.
The TNBC cells were obtained from tumors derived from parental and drug-resistant cells or from a two-dimensional culture plate with ˜70-80% confluence. The cells were washed twice in 1×PBS and trypsinized following established protocols. […]
It was next clarified whether and to the extent CFM-4.16 was able to interfere with growth of mammospheres derived from parental and drug-resistant TNBC-cells. […] The growing mammosphere cultures were then exposed to CFM-4.16, and the viabilities of untreated and treated cultures were determined by an MTT-based assay. […]

[8] = tested on: 4T1 TNBC cells, wild type; assay: MTT viability assay, parental 4T1; assay type: cell-based, mouse; conditions: Mus musculus; 72 h; Wild type
Method: as §2

- GI50 [4]: > 10 µM
- GI50 ([5]; Homo sapiens, MDA-MB-468, 72 h, ADR-R Clones 1-6): ~10 µM
- GI50 [6]: > 10 µM
SMILES: COc1cccc2c1C(=O)c1c(O)c3c(c(O)c1C2=O)C[C@@](O)(C(=O)CO)C[C@@H]3O[C@H]1C[C@H](N)[C@H](O)[C@H](C)O1 [Adriamycin, Doxorubicin, reference compound]
- GI50 [1]: ≥ 10 µM
- GI50 [2]: < 0.1 µM
- GI50 [3]: ~0.02 µM
- GI50 (TNBC cells; 72 h treatment period, read-out: GI50 doses, both the parental TNBC cell lines): < 0.1 µM
- GI50 (TNBC cells; read-out: GI50 dose, parental cells): 0.02 to 0.1 µM
- GI50 dose higher than wild-type, parental counterparts ([5]; ADR-resistant MDA-MB-468 vs parental): ≥ 500 fold
- viabilities of CSC enriched TNBC cells vs untreated [7]: significant loss of viabilities
- GI50 [8]: ~0.1 µM
